From patent US20180213776A1, “COMPOSITIONS FOR C[…] POPULATIONS” (PRESIDENT AND FELLOWS OF HARVARD COLLEGE, priority 2015, published 2018)

How the values were obtained:
[1] = test system: An. gambiae females; assay: Egg development after blood feeding; assay type: in vivo
Experimental: (§1) An. gambiae mosquitoes of the G3 strain were employed in all experiments. All mosquitoes were maintained under standard insectary conditions (26-28° C., 65-80% relative humidity, 12:12 hours light/dark photoperiod).
(§2) The DBH compound methoxyfenozide (0.5 μl of a 0.4% solution re-suspended in acetone) (Sigma-Aldrich, 32507) was topically applied to the thorax of An. gambiae females anesthetized on ice using a micropipette. Mating success, egg development after blood feeding and longevity were determined relative to acetone-treated controls. Females were 2 days old at the time of application, and each experiment was replicated twice. The effects of methoxyfenozide on mating success were determined by adding DBH-treated and control virgin females into separate cages containing a large excess of 5 day-old virgin males, 24 hours following topical application. 48 hours later successfully inseminated (mated) females from each cage were determined via dissection and the presence of sperm in the spermatheca. […] Egg development was evaluated 3 days later upon dissection of the ovaries.
(§3) A mating effect experiment was comprised of an unexposed and exposed group with cases defined as those who mated. The efficacy of the mating effect was defined as the prevented fraction in exposed, i.e. one minus the risk ratio. […]

[2] = test system: P. falciparum (NF54 strain); assay: P. falciparum infection (oocysts) after infectious blood meal; assay type: in vivo
Experimental: (§4) At the highest dose (2 μg), only 7.5% of females who fully engorged on an infectious blood meal were positive for oocysts, corresponding to an 87% reduction in infection prevalence relative to controls.

[3] = test system: Aedes species; assay: Preliminary data on eggs of Aedes species; assay type: in vivo
[4] = test system: An. gambiae females; assay: Dose dependency of egg laying (oviposition); assay type: in vivo; conditions: for individuals laying eggs: 24 hours prior to blood feeding, control 100%
Experimental: as §1
Mated females were tested for their ability to develop and lay eggs when exposed to DBH 24 hours prior to blood feeding at 5 different doses ranging in a 2-fold dilution series from about 2 μg to about 0.125 μg per mosquito, respectively. One hundred percent (100%) of the control females oviposited after a blood meal. […] An ED50 dose of […] (0.08-0.13 95% CI) was determined from the dose-response curve (slope of 2.32, R=0.993). Moreover, even in cases where females oviposited, a significant reduction in the number of eggs laid was detected at the three highest doses (e.g., 2 μg; 1 μg; and 0.5 μg), with a median egg number of zero compared to a median of 91.5 eggs in the control group.

[5] = test system: An. gambiae females; assay: Longevity / mortality after DBH exposure; assay type: in vivo
Experimental: as §1
For the longevity experiments, DBH-treated and control females were maintained in cups and supplied ad libitum with a 10% sucrose solution and water. Mortality rates after DBH/acetone exposure were recorded daily for 2 weeks, encompassing the period needed for mosquitoes to become infectious.
Day post-exposure was stratified to account for the time varying nature in the mortality effect experiment. For each day, there is the number of exposed and unexposed mosquitoes surviving to that day (risk set), and the number in each group surviving through that day. Using the risk set in day i, the relative risk of surviving through day i (RRi) is estimated, comparing the exposed to the unexposed. The efficacy for the mortality was defined as one minus RRi for day i. The confidence interval for the relative risk of survival was estimated using a Normal approximation of ln(RRi), with standard error:
as §4

[6] = test system: mammals; conditions: cited from earlier work
[7] = test system: An. gambiae females; assay: Mating success (insemination) after topical DBH application; assay type: in vivo
Experimental: as §1, §2, §3

[8] = test system: primary ovarian follicles; assay: TUNEL assay of ovaries (apoptosis of ovarian follicles); assay type: in vivo, An. gambiae; conditions: 24 hours after DBH exposure
Excerpt: Induction of autogenous egg development after exposure was not observed.

methoxyfenozide [DBH]
egg development after blood feeding ([1]; 0.5 μl of 0.4% solution topical, blood fed 24 hours after application, ovaries dissected 3 days later): completely abolished | efficacy: impaired egg development (reduction) ([1]; prevented fraction in exposed, add-one smoothing, 68% CI 94-99%): 98% | reduction in infection prevalence relative to controls ([2]; 2 μg): 87% | females positive for oocysts ([2]; 2 μg, 7 days post-infectious blood meal, control 58.5%): 7.5% | intensity of infection in females that developed oocysts ([2]; in vivo): not significantly affected | oocyst prevalence ([2]; low dose 0.125 μg, control 58.5%): 50.7% | females failed to develop an infection ([2]; median dose 0.5 μg): 25.8% | reduction in prevalence ([2]; median dose 0.5 μg): 56% | effect on eggs [3]: deformed eggs | females with no eggs developed in the ovaries despite fully engorging on blood ([4]; all DBH-exposed groups, upon dissection): 98.7% | individuals laying eggs ([4]; highest dose 2 μg per mosquito): 10.9% | induction of autogenous egg development after exposure ([4]; in vivo): not observed | individuals laying eggs ([4]; median dose 0.5 μg per mosquito): 47.4% | median egg number laid ([4]; three highest doses (2 μg; 1 μg; 0.5 μg), control median 91.5 eggs): zero | median survival time ([5]; 0.125 μg, control 19 days): 16 days | median survival time ([5]; 2 μg, control 19 days): 11 days | mortality over 14 days ([5]; 0.5 μl of 0.4% solution topical, controls 10%): ~100% | median survival time ([5]; 0.5 μl of 0.4% solution topical, recorded 2 weeks): 8 days | efficacy: maximum increase in daily mortality rate ([5]; day 8 post exposure, 68% CI 37-72%): 60% | reduction in median survival time compared to controls ([5]; highest dose (2 μg)): eight | carcinogenicity [6]: non-carcinogenic | toxicity to mammals [6]: not toxic to mammals unless used at extremely high concentrations | efficacy: reduced mating success (reduction) ([7]; prevented fraction in exposed, 68% CI 58-73%): 67% | females successfully inseminated by males (sperm in the spermatheca) ([7]; treated once, 0.5 μl of 0.4% solution topically to thorax, controls 86%): 29% | TUNEL: apoptosis of primary ovarian follicles [8]: extensive fragmentation of chromatin, indicative of apoptosis
